These results are taken from US6337316B1, “Pharmaceutical compositions thereof, and methods of using same” (Applied Research Systems ARS Holding N.V., priority 1997, dated 2002).

What is called IC50 is the concentration at which inhibition is half-maximal.

Entries after “also recorded” stand apart in the source; their conditions may differ. Peptide text beside a SMILES is read from it.

In one data set the test system is PHA activated PBLs. The experiment in a line: Mitogen (PHA) stimulation assay of PBL, 3H-Tdr incorporation. The class given is cell-based, human. As to conditions: for effect on PHA activation of PBLs / PHA stimulated T cells: in words. On the procedure:
For these assays, ficoll-hypaque purified PBMC (10^5 cells/well) were incubated in flat-bottom 96-well tissue culture plates with indicated concentrations or phytohemagglutinin (PHA; 5, 2.5, 1.25, 0.5 μg/ml) for 3 days at 37° C. in a humidified 5% CO2/air incubator. Cells were incubated in the presence or absence of various concentrations of CTLA-4 Ig, purified anti-CD80 mAb (1 μg/ml), anti-CD86 mAb (1 μg/ml), and peptides 199 and 201 serially diluted from 100 μM to 12.5 μM for the period of the assay.
Proliferation of the cells was determined by pulsing the wells with ^3H-Tdr (1 μCi/well) for the last 6 h of the assay. Plates were harvested using a Tomtec plate harvester and the counts incorporated determined using a Wallac microbetaplate plus reader.
AT 199 was tested for inhibition of PHA activated PBLs. PHA activation, while not specifically targeted at the CD28 pathway, has some dependence on this pathway depending on the concentration of PHA used to activate lymphocytes. To determine the […] of phytohemagglutinin (PHA) activation on CD28 signaling, CTLA-4Ig was included in each assay.
In order to test for an unanticipated mechanism of inhibition, AT 199 was assayed using PHA-stimulation of PBLs. Phytohemagglutinin (PHA) is a lectin extracted from the red kidney bean and is a mixture of five tetrameric glycoprotein. PHA stimulates T cells in the presence of accessory cells (but not B cells) by cross-linking a variety of critical T cell surface molecules, including CD3, CD2, CD4, CD8 and LFA-1 (Geppert, 1992). The involvement of CD28 in this stimulation is dependent on the degree of crosslinking by PHA. At the appropriate concentration of PHA, the simultaneous engagement of cell surface receptors results in a proliferation response that can bypass the need for specific costimulatory signals such as CD28. This can be monitored by examining CTLA-4Ig inhibition of PHA mitogenesis.

For data set [1], the system named is binding of CTLA-4Ig to B7 on Cess B cells. The experiment in a line: CTLA-4Ig/B7 binding assay on Cess B cells by FACS. As to conditions: FACS; assays of 3/24, 3/25, 4/5, 4/25; one symbol per assay. On the procedure: +++ was assigned if the peptide tested gave >50% change in cpm in a dose dependent fashion. In addition to the MLR, these 34 peptides were also evaluated in a CTLA-4Ig/B7 binding assay in which the ability of these peptides to affect the binding of CTLA-4Ig to B7 on Cess B cells was examined by FACS analysis.
As with the MLR, a + or − was assigned to each peptide depending on its ability to effect CTLA-4Ig binding to Cess B cells; where − represents no change in binding, + represents a minor change of <10% in binding, and a ++ represents a change of >20% in binding.

The subject of another data set is Jurkat cells. The data set can be described thus: Toxicity test on growing cell cultures. Format: cell-based. As to conditions: 100 μM AT 199. On the procedure:
(§1) To determine if the activity of AT 199 was due to a specific effect on lymphocyte proliferation in the MLR or due to a non-specific inhibition of lymphocyte proliferation in general (i.e., toxicity), the toxicity of AT 199 was tested against THP-1, Jurkat, and resting and activated PBLs.
(§2) AT 199 and its control analogs were assayed for overt toxicity and non-specific inhibition. The peptides were added to growing cultures of THP-1 cells, Jurkat cells and primary peripheral blood lymphocytes (PBLs).

A further data set concerns THP-1 cells. The experiment in a line: Toxicity test on growing cell cultures. As to conditions: 100 μM AT 199. The class given is cell-based. The protocol: as §1, §2
The test system of data set [2] is primary peripheral blood lymphocytes (PBLs). The data set can be described thus: Toxicity test on growing cell cultures. Format: cell-based, human. The conditions noted are these: 100 μM AT 199. On the procedure:
as §1, §2

Data set [3] relates to lymphocyte proliferation in the human MLR. Format: cell-based. The protocol:
Whole blood from donors was obtained from Interstate Blood Bank, Memphis, Tenn. Blood specimens were handled in a biosafety level 2 containment facility as recommended for potentially infectious blood specimens in the CDC/NIH manual Biosafety in Microbiological and Biomedical Laboratories; 3rd edition, 1993, page 10. Peripheral blood mononuclear cells (PBMC) were separated from red blood cells and granulocytes by ficoll-hypaque purification. Whole peripheral blood was diluted 1:2 in PBS and 30 ml was overlayed onto 15 ml of ficoll-hypaque in 50 ml polypropylene tubes. The tubes were spun at 400×g for 30 min at 25° C. Following centrifugation, the interface between the upper plasma layer and the lower ficoll layer was collected, cells washed in RPMI-1640 2×, and viable counts determined using trypan blue. Cells to be used as responders in the assay were stored on ice until mitomycin C treatment of stimulator cells was completed.
PBMC, isolated as described above, to be used as stimulators in the assay were adjusted to 2-4×10^6 cells/ml in complete medium (RPMI 1640 containing 10% heat-inactivated human AB serum, 2 mM glutamine, 50 μM 2-mercaptoethanol and 100 U/ml penicillin-100 μg/ml streptomycin), and treated with mitomycin C (25 μg/ml) for 30 min in a 37° C. water bath. Following treatment, cells were washed with S volumes of complete medium 3×, and viable counts determine using trypan blue. To set up autologous stimulation controls some responder cells were also treated with mitomycin C as mentioned above.
Purified CTLA-4Ig fusion protein was produced, as described in Steurer et al. 1995, from a NS-1 cell line kindly donated by Dr. T. Strom (Beth Israel Hospital, Boston, Mass.) as a 1 mg/ml solution in sterile PBS. The protein was stored frozen at −80° C. Upon thawing, the aliquot was stored at 4° C. Purified peptides were lyophilized according to known procedures. Peptides were reconstituted in sterile PBS, pH 7.4 at 2 mM concentration, aliquoted in microfuge cubes and stored frozen at −20° C. For the assay, an aliquot of the peptide was thawed and diluted to 200 μM in complete medium.
For the one-way allogeneic mixed lymphocyte response (MLR) assay, responder cells were plated at 10^6 cells/well, and stimulator cells at 5×10^4 cells/well in 96-well round bottom plates. Cells were incubated with serial dilutions of the anti-CD4 Ab Leu 3A (1 μg/ml-0.06 μg/ml) in triplicate, or an isotype-matched control Ab. Cyclosporin A at 1 μg/ml was used as an additional control.
CTLA-4 Ig was serially diluted an.4 tested from 10 μg/ml to 0.15 μg/ml. Peptides were tested either directly or in the presence of a constant spiked-in dose of CTLA-4 Ig at 0.5 μg/ml. The plates were incubated at 37° C. in a humidified 5% CO2 atmosphere for 7 days.
Proliferation of the cells was determined by pulsing the wells with ^3H-Tdr (1 μCi/well) for the last 18 h of the assay. Plates were harvested using a Tomtec -late harvester and the counts incorporated determined using a Wallac microbetaplate plus reader.
A total of 34 peptides were tested for inhibition of lymphocyte proliferation in the human MLR. Each peptide was tested in a MLR at doses ranging from 12.5 to 100 μM. The activity of each peptide was identified by assigning a + and − tone peptide depending on its ability to inhibit lymphocyte proliferation in the MLR (cpms).

Data set [4] has as its system murine MLR splenocyte proliferation. The data set can be described thus: One-way murine MLR (C57Bl/6 stimulators, BalB/c responders). The class given is cell-based, mouse. The conditions noted are these: 10 μg/ml CTLA-4Ig; stated as similar to AT 199.3. On the procedure:
One-way murine MLRs were set up using the C57Bl/6 mice splenocytes as stimulators and BalB/c splenocytes as responders.
Spleens were excised from mice (Jackson Laboratories, Bar Harbor, Ma.) 6-8 weeks of age. Cells were separated from the capsule using sterile frosted glass slides and washed in cold RPMI 1640 1×. Red blood cells were lysed by treating the spleen cell suspension with cold Tris ammonium chloride buffer (2 ml/spleen) for 3 min on ice. After lysis, the cells were washed 2× in 5 volumes of complete medium (RPMI 1640 containing 10 % heat-inactivated FBS, 2 mM glutamine, 50 μM 2-mercaptoethanol, 100 U/ml penicillin-100 μg/ml strepcomycin, 1 mM sodium pyruvate and 1 mM non-essential amino acids).
Plastic-adherent cells were removed from splenocytes of BalB/c mice by adjusting the cell concentration to 3×10^6 cells/ml in complete medium and incubating the cells for 1.5-2 h at 37° C. in T-75 flasks. Following incubation non-adherent cells were collected by gently washing the flasks and the percent recovery determined (60-70%). Bal b/C responder cells were stored on ice until mitomycin C treatment of stimulator cells was completed.
Following RBC lysis splenocytes of C57Bl/6 mice were adjusted to 2-4×10^6 cells/ml in complete medium and treated with mitomycin C (50 μg/ml) for 30 min at 37° C. in a humidified 5% CO2 in air atmosphere. Following treatment, cells were washed with 5 volumes of complete medium 3×, and viable counts determined using trypan blue.
To set up autologous stimulation controls some responder cells were also treated with mitomycin C as mentioned above.
For the assay, responder and stimulator cells were plated at 10^5 cells/well in 96-well round bottom plates. […]
Appropriate scrambled peptide controls and matrix controls were included in every assay. […] Proliferation of the cells was determined by pulsing the wells with 3H-Tdr (1 μCi/well) For the last 6 h of the assay. Plates were harvested and the counts incorporated determined as described above.

A further data set addresses T1, B7-1 (Homo sapiens, UniProt P33681).
T1 sequence (P33681 35-288): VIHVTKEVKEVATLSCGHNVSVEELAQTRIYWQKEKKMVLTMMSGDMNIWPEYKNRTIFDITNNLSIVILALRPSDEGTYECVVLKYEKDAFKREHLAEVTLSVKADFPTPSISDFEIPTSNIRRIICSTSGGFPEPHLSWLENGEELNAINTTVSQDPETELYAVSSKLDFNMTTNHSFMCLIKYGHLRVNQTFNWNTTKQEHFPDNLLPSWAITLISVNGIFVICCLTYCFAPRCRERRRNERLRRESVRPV
The conditions noted are these: CTLA-4Ig vs CD28Ig, higher affinity; cited from earlier work.

The test system of data set [5] is Th1-type cytokines and antigen specific T cells. The conditions noted are these: delayed administration of the protein; cited from earlier work.

For the molecule `CSCC[C@@H]1NC(=O)[C@H](CC(C)C)NC(=O)[C@@H](NC(=O)[C@H](CCCCN)NC(=O)[C@@H](N)CCCNC(=N)N)CSSC[C@@H](C(=O)N[C@@H](Cc2c[nH]cn2)C(=O)N[C@@H](Cc2c[nH]cn2)C(N)=O)NC(=O)[C@H](Cc2ccc(O)cc2)NC(=O)[C@H](Cc2ccc(O)cc2)NC(=O)[C@@H]2CCCN2C(=O)[C@@H]2CCCN2C(=O)[C@@H]2CCCN2C(=O)[C@H](Cc2ccc(O)cc2)NC1=O` [AT 199.1, RKCLMYPPPYYCHH] (HELM PEPTIDE1{R.K.C.L.M.Y.P.P.P.Y.Y.C.H.H.[am]}$PEPTIDE1,PEPTIDE1,3:R3-12:R3$$$V2.0; N-terminus assumed), the “effect on PHA activation of PBLs / PHA stimulated T cells” value in the data set on PHA activated PBLs is “only a minor effect; also recorded: did not inhibit”. Also, the “Binding Assay (effect on CTLA-4Ig binding to Cess B cells)” value in [1] is on record as “+, +, +”. The “inhibition / effect on growth of Jurkat cells” value with Jurkat cells is reported as “no inhibition; also recorded: No effect”. For the same molecule, the “inhibition / effect on growth of THP-1 cells” value in the data set with THP-1 cells is recorded as “no inhibition; also recorded: No effect”. Also, in data set [2], the “inhibition / effect on growth of resting primary PBLs” value was “no inhibition; also recorded: No effect”. The molecule also returned an IC50 in data set [3] of 50 to 100 µM. Also, in data set [3] (peptide 12.5 to 100 μM, assays of 1/24, 1/31, 3/6, 4/17, 5/2, one symbol per assay), the “Human MLR (ability to inhibit lymphocyte proliferation, cpm)” value was “+, +, +”. The “human MLR assays in which the peptide was active” value in data set [3] (total of 6 human MLR assays) is 5 out of 6.
In the case of “CTLA-4Ig: Purified CTLA-4Ig fusion protein (murine) produced from a NS-1 cell line as in Steurer et al. 1995”, in [4], the “inhibition of the murine MLR” value is roughly 85%. Also, in the data set with PHA activated PBLs (10 μg/ml CTLA-4Ig, PHA 2.5 and 5 μg/ml (FIG. 11)), the “inhibition of PHA activation” value is given as 40-50%. Moreover, the “effect on PHA activation of PBLs / PHA stimulated T cells” value with PHA activated PBLs is listed as “inhibited PHA activation slightly”. Further, in the data set with B7-1, the “affinity for B7-1 relative to CD28Ig” value was 20-100 fold. Also, in [5], the “blunted expansion of antigen specific T cells” value is reported as 50% and the “reduction in Th1-type cytokines” value is reported as 80-90%.
